Tests used:
[1] = molecular target: T1, Acetylcholine-binding protein (Lymnaea stagnalis, UniProt P58154)
Description: Binding affinity to Lymnaea stagnalis His6-AChBP expressed in Bac-to-Bac baculovirus expression system by surface plasmon resonance biosensor assay

[2] = molecular target: T1, Acetylcholine-binding protein; remark: listed apart in the source
Description: Displacement of [3H]epibatidine from Lymnaea stagnalis His6-AChBP expressed in Bac-to-Bac baculovirus expression system

[3] = molecular target: Neuronal acetylcholine receptor subunit alpha-7 (Homo sapiens, UniProt P36544); assay: biochemical
Neuronal acetylcholine receptor subunit alpha-7, sequence (P36544 whole entry): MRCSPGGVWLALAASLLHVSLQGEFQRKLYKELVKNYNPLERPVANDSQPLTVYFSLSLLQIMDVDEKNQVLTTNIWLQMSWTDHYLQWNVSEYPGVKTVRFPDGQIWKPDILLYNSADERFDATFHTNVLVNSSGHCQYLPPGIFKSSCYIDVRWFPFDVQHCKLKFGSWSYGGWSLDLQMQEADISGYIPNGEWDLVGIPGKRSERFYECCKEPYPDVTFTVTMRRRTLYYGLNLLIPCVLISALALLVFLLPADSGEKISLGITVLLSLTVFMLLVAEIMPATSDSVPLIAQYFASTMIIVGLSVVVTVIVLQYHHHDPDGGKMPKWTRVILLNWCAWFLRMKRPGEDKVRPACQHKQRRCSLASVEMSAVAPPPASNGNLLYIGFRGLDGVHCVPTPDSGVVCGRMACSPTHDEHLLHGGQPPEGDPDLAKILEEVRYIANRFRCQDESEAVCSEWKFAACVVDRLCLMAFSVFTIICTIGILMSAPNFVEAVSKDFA
Description: Displacement of [3H]-MLA from human alpha7 nAChR expressed in human SH-SY5Y cells

T1 sequence (P58154 whole entry): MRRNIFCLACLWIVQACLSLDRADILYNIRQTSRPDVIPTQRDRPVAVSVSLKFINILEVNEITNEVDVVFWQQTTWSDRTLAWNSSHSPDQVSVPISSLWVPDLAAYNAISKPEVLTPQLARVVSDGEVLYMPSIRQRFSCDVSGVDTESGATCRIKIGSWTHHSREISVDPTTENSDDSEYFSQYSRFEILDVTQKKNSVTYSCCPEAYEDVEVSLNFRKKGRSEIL

Row | Structure (SMILES) | Kd [1] [nM] | Ki [2] [nM] | Ki [3] [nM]
1 | O=C(N[C@@H]1C2CCN(CC2)[C@H]1Cc1cccnc1)c1ccccc1 | 219 | 240 | –
2 | O=C(N[C@@H]1C2CCN(CC2)[C@H]1Cc1cccnc1)c1cc2ccccc2o1 [BRADANICLINE] | 20 | 14.5 | –
3 | CN(C)CCc1cccnc1 | 6030 | 3160 | 3160
4 | N[C@@H]1C2CCN(CC2)[C@H]1Cc1cccnc1 | 550 | 468 | 2290
5 | O=C(N[C@@H]1C2CCN(CC2)[C@H]1Cc1cccnc1)c1cccs1 | 240 | 148 | 43.7
6 | O=C(N[C@@H]1C2CCN(CC2)[C@H]1Cc1cccnc1)Oc1ccccc1 | 347 | 501 | 37.2
7 | O=C(Nc1ccccc1)N[C@H]1CN2CCC1CC2 | 18600 | 5500 | 110
8 | O=C(Nc1ccc(Br)cc1)N[C@@H]1C2CCN(CC2)[C@H]1Cc1cccnc1 | 437 | 708 | 25.7
9 | O=C(Nc1ccc(Br)cc1)OCCCc1cccnc1 | 50100 | > 10000 | 6920
10 | N[C@H]1CN2CCC1CC2 | 74100 | 110000 | 6310
11 | O=C(Nc1ccccc1)O[C@@H]1C2CCN(CC2)[C@H]1Cc1cccnc1 | 100 | 61.7 | 18.6
12 | O=C(Nc1ccc(Br)cc1)O[C@H]1CN2CCC1CC2 | 4470 | 3020 | 38.9
13 | O=C(Nc1ccccc1)OCCCc1cccnc1 | 741000 | 282000 | 14500
14 | O=C(Nc1ccc(Br)cc1)N[C@H]1CN2CCC1CC2 | 4900 | 5130 | 43.7
15 | NCCc1cccnc1 | 148000 | 93300 | 8510
16 | O[C@@H]1C2CCN(CC2)[C@H]1Cc1cccnc1 | 316 | 251 | 3310
17 | O=C(Nc1ccccc1)O[C@H]1CN2CCC1CC2 | 29500 | 7940 | –
18 | O=C(N[C@H]1CN2CCC1CC2)c1ccc(Cl)cc1 [PNU-282987] | 3630 | 2090 | 24.5
19 | O=C(Nc1ccccc1)N[C@@H]1C2CCN(CC2)[C@H]1Cc1cccnc1 | 871 | 562 | 28.8
